# Assay results reported in patent US20110306597A1, “Nicotinamide Derivatives” (priority 2008, published 2011).
# Target: human recombinant H-PGDS (Homo sapiens, UniProt O60760)
# Assay: Fluorescence Intensity h-PGDS TBA Enzyme Assay
# Assay type: biochemical
# Conditions: 1:175,000 human recombinant H-PGDS, highest inhibitor concentration typically 1 μM
# Description: Fluorescence Intensity h-PGDSTBA Enzyme Assay
# Prostaglandin D Synthase (PGDS) converts the substrate prostaglandin H2 (PGH2) to prostaglandin D2. The depletion of PGH2 was measured via an Fe(II) reduction of the remaining PGH2 to malondialdehyde (MDA) and 12-HHT. The enzyme assay is based on the quantitative formation of a fluorescent complex from the non-fluorescent compounds MDA and 2-thiobarbituric acid (TBA), substantially as described in U.S. patent application publication US-2004/152148 by Lombardt.
# The enzyme assay (31 μls) contained 100 mM Tris base pH 8.0, 100 μM MgCl2, 0.1 mg/ml IgG Rabbit serum, 5.0 μM PGH2 (Cayman; ethanol solution, #17020), 2.5 mM L-Glutathione (Sigma; reduced form #G4251), 1:175,000 human recombinant H-PGDS (from 1 mg/ml), 0.5% DMSO and inhibitor (varying concentration). Three μls of diluted inhibitor (dissolved in DMSO) was plated into a 384-well assay plate followed by a 25 μl addition of an enzyme solution containing h-PGDS, Tris, MgCl2, IgG and L-Glutathione. After preincubation of inhibitor and enzyme solution for 10 minutes at room temperature, the reaction was initiated with a 3 μl addition of substrate solution in 10 mM HCl. The reaction was terminated after 42 second by the addition (3 μl) of stop buffer containing FeCl2 and citric acid. After addition of 45.5 μls of TBA plates were heated for one hour in a 70 C oven. Plates were cooled at room temperature overnight and read on a plate reader the next day with excitation @ 530 nm and emission @ 565 nm.
# IC50's of inhibitors were calculated with a 4-parameter fit using 11 inhibitor concentrations in duplicate with 3-fold serial dilutions. Controls on each plate included no inhibitor (zero % effect) and an inhibitor 10-fold in excess of its' IC50 (100% effect). The highest inhibitor concentration tested was typically 1 μM.
# Chain of human recombinant H-PGDS (O60760 whole entry): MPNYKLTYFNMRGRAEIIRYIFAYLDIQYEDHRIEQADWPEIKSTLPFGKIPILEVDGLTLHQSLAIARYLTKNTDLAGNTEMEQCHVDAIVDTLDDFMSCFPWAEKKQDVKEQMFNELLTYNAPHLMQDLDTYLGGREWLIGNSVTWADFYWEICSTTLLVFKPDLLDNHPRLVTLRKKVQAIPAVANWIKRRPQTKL
row,Compound,IC50 [nM]
1,6-(3-Fluorophenyl)-N-(3- hydroxypropyl)nicotinamide [Example 435],49.5
2,6-(3-Fluorophenyl)-N-[2- hydroxy-2-(1-methyl-1H- imidazol-2- yl)ethyl]nicotinamide [Example 4],59.9
3,6-(3-Fluorophenyl)-N-{[1- (2-methoxyethyl)piperidin- 3-yl]methyl}nicotinamide [Example 438],374
4,6-(3-Fluorophenyl)-N-{[4-(4- methoxybenzoyl)-5- oxomorpholin-2- yl]methyl}nicotinamide [Example 72],51
5,"Cc1ccc2nc(CCNC(=O)c3ccc(-c4cccc(F)c4)nc3)cn2c1 [Example 1, 6-(3-Fluorophenyl)-N-[2-(6-methylimidazo[1,2-a]pyridin-2-yl)ethyl]nicotinamide]",3.54
6,"Cc1nc(CCNC(=O)c2ccc(-c3cccc(F)c3)nc2)cs1 [Example 2, 6-(3-Fluorophenyl)-N-[2-(2-methyl-1,3-thiazol-4-yl)ethyl]nicotinamide]",3.53
7,"Cc1cccnc1CC(C)NC(=O)c1ccc(-c2cccc(F)c2)nc1 (stereo not shown) [Example 3, 6-(3-Fluorophenyl)-N-[1-methyl-2-(3-methylpyridin-2-yl)ethyl]nicotinamide]",2.89
8,"O=C(NCCCn1nnc2ccccc21)c1ccc(-c2cccc(F)c2)nc1 [Example 5, N-[3-(1H-Benzotriazol-1-yl)propyl]-6-(3-fluorophenyl)nicotinamide]",4.86
9,"O=C(NCCc1cn2cccnc2n1)c1ccc(-c2cccc(F)c2)nc1 [Example 6, 6-(3-Fluorophenyl)-N-(2-imidazo[1,2-a]pyrimidin-2-ylethyl)nicotinamide]",13
10,"Cc1cc(=O)[nH]c(NCCNC(=O)c2ccc(-c3cccc(F)c3)nc2)n1 [Example 7, 6-(3-Fluorophenyl)-N-{2-[(4-methyl-6-oxo-1,6-dihydropyrimidin-2-yl)amino]ethyl}nicotinamide]",38.8
11,"N#CC(NC(=O)c1ccc(-c2cccc(F)c2)nc1)c1ccccc1 (stereo not shown) [Example 8, N-[Cyano(phenyl)methyl]-6-(3-fluorophenyl)nicotinamide]",25.7
12,"O=C(NC[C@H]1CC[C@H](c2nnc(C3CC3)[nH]2)CC1)c1ccc(-c2cccc(F)c2)nc1 [Example 9, N-{[trans-4-(5-Cyclopropyl-4H-1,2,4-triazol-3-yl)cyclohexyl]methyl}-6-(3-fluorophenyl)nicotinamide]",83.6
13,"CN1CCc2nc(N3CCC(CNC(=O)c4ccc(-c5cccc(F)c5)nc4)CC3)ncc2C1 [Example 10, 6-(3-Fluorophenyl)-N-{[1-(6-methyl-5,6,7,8-tetrahydropyrido[4,3-d]pyrimidin-2-yl)piperidin-4-yl]methyl}nicotinamide]",26.9
14,"Cc1noc([C@H]2CC[C@H](CNC(=O)c3ccc(-c4cccc(F)c4)nc3)CC2)n1 [Example 11, 6-(3-Fluorophenyl)-N-{[trans-4-(3-methyl-1,2,4-oxadiazol-5-yl)cyclohexyl]methyl} nicotinamide]",18.9
15,"CC(C)N1CCC(CNC(=O)c2ccc(-c3cccc(F)c3)nc2)C1 (stereo not shown) [Example 12, 6-(3-Fluorophenyl)-N-[(1-isopropylpyrrolidin-3-yl)methyl]nicotinamide]",117
16,"O=C(NCc1ccc[nH]c1=O)c1ccc(-c2cccc(F)c2)nc1 [Example 13, 6-(3-Fluorophenyl)-N-[(2-oxo-1,2-dihydropyridin-3-yl)methyl]nicotinamide]",20.4
17,"O=C(NCC1CCCN(c2ccccn2)C1)c1ccc(-c2cccc(F)c2)nc1 (stereo not shown) [Example 14, 6-(3-Fluorophenyl)-N-[(1-pyridin-2-ylpiperidin-3-yl)methyl]nicotinamide]",9.18
18,"O=C(NC(c1ccccc1)c1nc(CN2CCOCC2)no1)c1ccc(-c2cccc(F)c2)nc1 (stereo not shown) [Example 15, 6-(3-Fluorophenyl)-N-{[3-(morpholin-4-ylmethyl)-1,2,4-oxadiazol-5-yl](phenyl)methyl}nicotinamide]",70.9
19,"COc1ccccc1-c1nnc(CCNC(=O)c2ccc(-c3cccc(F)c3)nc2)o1 [Example 16, 6-(3-Fluorophenyl)-N-{2-[5-(2-methoxyphenyl)-1,3,4-oxadiazol-2-yl]ethyl}nicotinamide]",4.1
20,"COCCCn1cnnc1CNC(=O)c1ccc(-c2cccc(F)c2)nc1 [Example 17, 6-(3-Fluorophenyl)-N-{[4-(3-methoxypropyl)-4H-1,2,4-triazol-3-yl]methyl}nicotinamide]",112

row,Compound,IC50 [nM]
1,"O=C(NCCN1CCCC(CO)C1)c1ccc(-c2cccc(F)c2)nc1 (stereo not shown) [Example 18, 6-(3-Fluorophenyl)-N-{2-[3-(hydroxymethyl)piperidin-1-yl]ethyl}nicotinamide]",31.1
2,"COCCN1CCC(CNC(=O)c2ccc(-c3cccc(F)c3)nc2)CC1 [Example 19, 6-(3-Fluorophenyl)-N-{[1-(2-methoxyethyl)piperidin-4-yl]methyl}nicotinamide]",117
3,"COCCN1CC(CNC(=O)c2ccc(-c3cccc(F)c3)nc2)CC1=O (stereo not shown) [Example 20, 6-(3-Fluorophenyl)-N-{[1-(2-methoxyethyl)-5-oxopyrrolidin-3-yl]methyl}nicotinamide]",35.1
4,"COc1cc(CCNC(=O)c2ccc(-c3cccc(F)c3)nc2)cc(OC)c1O [Example 21, 6-(3-Fluorophenyl)-N-[2-(4-hydroxy-3,5-dimethoxyphenyl)ethyl] nicotinamide]",4.94
5,"CCCOCCCNC(=O)c1ccc(-c2cccc(F)c2)nc1 [Example 22, 6-(3-Fluorophenyl)-N-(3-propoxypropyl)nicotinamide]",13.8
6,"COCCn1cnnc1CNC(=O)c1ccc(-c2cccc(F)c2)nc1 [Example 23, 6-(3-Fluorophenyl)-N-{[4-(2-methoxyethyl)-4H-1,2,4-triazol-3-yl]methyl}nicotinamide]",106
7,"CC(CCCC(C)(C)O)NC(=O)c1ccc(-c2cccc(F)c2)nc1 (stereo not shown) [Example 24, 6-(3-Fluorophenyl)-N-(5-hydroxy-1,5-dimethylhexyl)nicotinamide]",20.2
8,"Cn1ccnc1C(NC(=O)c1ccc(-c2cccc(F)c2)nc1)c1c(F)cccc1F (stereo not shown) [Example 25, N-[(2,6-Difluorophenyl)(1-methyl-1H-imidazol-2-yl)methyl]-6-(3-fluorophenyl)nicotinamide]",399
9,"O=C(NCC1(O)CCCCC1)c1ccc(-c2cccc(F)c2)nc1 [Example 26, 6-(3-Fluorophenyl)-N-[(1-hydroxycyclohexyl)methyl] nicotinamide]",41.8
10,"CCOC(=O)CC[C@H](NC(=O)c1ccc(-c2cccc(F)c2)nc1)C(=O)OCC [Example 27, Diethyl N-{[6-(3-fluorophenyl)pyridin-3-yl]carbonyl}-L-glutamate]",4.29
11,"CS(=O)(=O)CCNC(=O)c1ccc(-c2cccc(F)c2)nc1 [Example 28, 6-(3-Fluorophenyl)-N-[2-(methylsulfonyl)ethyl] nicotinamide]",47.1
12,"NC(=O)[C@H](Cc1ccccc1)NC(=O)c1ccc(-c2cccc(F)c2)nc1 [Example 29, Nalpha-{[6-(3-fluorophenyl)pyridin-3-yl]carbonyl} phenylalaninamide]",17.6
13,"O=C(CC(NC(=O)c1ccc(-c2cccc(F)c2)nc1)C1CC1)NCC1CC1 (stereo not shown) [Example 30, N-{1-Cyclopropyl-3-[(cyclopropylmethyl)amino]-3-oxopropyl}-6-(3-fluorophenyl)nicotinamide]",41
14,"COc1ccc(CCc2nnc(CNC(=O)c3ccc(-c4cccc(F)c4)nc3)[nH]2)cc1 [Example 31, 6-(3-Fluorophenyl)-N-({5-[2-(4-methoxyphenyl)ethyl]-4H-1,2,4-triazol-3-yl}methyl)nicotinamide]",35
15,"O=C(NCCN1CCC(O)CC1)c1ccc(-c2cccc(F)c2)nc1 [Example 32, 6-(3-Fluorophenyl)-N-[2-(4-hydroxypiperidin-1-yl)ethyl]nicotinamide]",31.1
16,"COc1cccc(CNC(=O)c2ccc(-c3cccc(F)c3)nc2)c1OC [Example 33, N-(2,3-Dimethoxybenzyl)-6-(3-fluorophenyl)nicotinamide]",2.72
17,"CCOCC(O)CNC(=O)c1ccc(-c2cccc(F)c2)nc1 (stereo not shown) [Example 34, N-(3-Ethoxy-2-hydroxypropyl)-6-(3-fluorophenyl)nicotinamide]",73.4
18,"O=C(NCCc1nc(CN2CCOCC2)no1)c1ccc(-c2cccc(F)c2)nc1 [Example 35, 6-(3-Fluorophenyl)-N-{2-[3-(morpholin-4-ylmethyl)-1,2,4-oxadiazol-5-yl]ethyl}nicotinamide]",50.8
19,"COCc1cc(CNC(=O)c2ccc(-c3cccc(F)c3)nc2)n[nH]1 [Example 36, 6-(3-Fluorophenyl)-N-{[5-(methoxymethyl)-1H-pyrazol-3-yl]methyl}nicotinamide]",27.7
20,"CC(C)OCCCNC(=O)c1ccc(-c2cccc(F)c2)nc1 [Example 37, 6-(3-Fluorophenyl)-N-(3-isopropoxypropyl) nicotinamide]",15.8
